Source: US20150258129A1, “Method for Increasing the Activity of Lysosomal Enzymes” (Mount Sinai School of Medicine of New York University, priority 1998, published 2015)

What was measured:
[1] = molecular target: T1, glucocerebrosidase (β-Glu), N370S/N370S (Homo sapiens, UniProt P04062, N409S); test: Intracellular enhancement of β-Glu activity in Gaucher fibroblasts (N370S/N370S); type: cell-based
T1 construct: endogenous in cells; host or cells: human Gaucher patient fibroblasts, genotype N370S/N370S
T1 sequence (P04062 40-536 N409S): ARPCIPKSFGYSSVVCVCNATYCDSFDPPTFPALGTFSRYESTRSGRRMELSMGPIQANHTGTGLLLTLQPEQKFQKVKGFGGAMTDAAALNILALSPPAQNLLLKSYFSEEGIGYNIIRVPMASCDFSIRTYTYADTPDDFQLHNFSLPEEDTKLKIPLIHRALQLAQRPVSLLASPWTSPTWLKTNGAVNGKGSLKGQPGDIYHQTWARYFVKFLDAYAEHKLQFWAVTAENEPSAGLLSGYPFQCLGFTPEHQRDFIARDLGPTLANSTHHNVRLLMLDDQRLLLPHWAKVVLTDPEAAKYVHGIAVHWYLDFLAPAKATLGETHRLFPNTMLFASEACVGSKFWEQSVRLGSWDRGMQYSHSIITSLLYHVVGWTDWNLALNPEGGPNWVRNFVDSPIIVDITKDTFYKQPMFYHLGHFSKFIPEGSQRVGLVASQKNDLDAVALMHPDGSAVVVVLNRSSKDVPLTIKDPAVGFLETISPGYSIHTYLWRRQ

almond β-galactosidase = conditions: cited from earlier work

- increase of intracellular β-Glu activity in Gaucher fibroblasts ([1]; N370S/N370S, 1-50 μM in the culture medium, FIG. 8A): 55-80%
- residual β-Glu activity in Gaucher cells, time course ([1]; N370S/N370S, day 1 or 2, FIG. 8B): did not change
- increase of β-Glu activity in Gaucher cells, time course ([1]; N370S/N370S, day 5, FIG. 8B): more than 80%
- β-Glu enhancement effect at high concentration ([1]; N370S/N370S, higher than 50 μM): nullified the enhancement effect
- intracellular β-Glu activity in Gaucher fibroblasts (summary) ([1]; concentration ranges of 0.05-100 μM): effectively enhance
Structure (SMILES): OC[C@H]1CNC[C@@H](O)[C@@H]1O [compound 33, isofagomine]
- inhibition of almond β-galactosidase (in words) (almond β-galactosidase): potent inhibitor
